According to patent US10472324B2, “2-cyano-3-cyclopropyl-3-hydroxy-N-aryl-thioacrylamide derivatives” (Algiax Pharmaceuticals GmbH, priority 2014, dated 2019):
pIC50: −log10 of the molar value.

The compounds below were run against GABA gated Cl-channel (GABA.A receptor complex) (assay: GABAA receptor binding assay ([35S]TBPS radioligand)). Details: 3 nM [35S]TBPS, rat cerebral cortex membrane homogenates, 120 min at 22° C.
Method: GABAA Receptor Binding Assay:
The affinity of the test compounds for the GABA gated Cl-channel (GABA.A receptor complex) in the rat cerebral cortex was determined in a radioligand binding assay (Lewin et al,. 1989). Membrane homogenates of cerebral cortex are incubated for 120 min at 22° C. with 3 nM [35S]TBPS (-t-butylbicyclophosphoorothionate) in the presence and absence of the test compound.
Following incubation, the samples are filtered rapidly under vacuum through glass fiber filters and rinsed several times with ice-cold buffer using a 96-sample cell harvester. The filters are dried then counted for radioactivity in a scintilliation counter using a scintillation cocktail (Microscint 0, Packard). Each compound was tested at several concentrations to calculate the IC50 values of the affinity to the GABA.A receptor complex in cerebral cortex of rats.

In order of falling pIC50:
1. N#CC(C(=S)Nc1ccc(S(=O)(=O)C(F)(F)F)cc1)=C(O)C1CC1 [Example 9, 2-Cyano-3-cycopropyl-3-hydroxy-N-(4-trifluoromethanesulfonyl-phenyl)-thioacrylamide]  5.30
2. N#CC(C(=S)Nc1ccc(SC(F)(F)F)cc1)=C(O)C1CC1 [Example 5, 2-Cyano-3-cyclopropyl-3-hydroxy-N-(4-trifluoromethylsulfanyl-phenyl)-thioacrylamide]  5.11
3. Cc1cc(NC(=S)C(C#N)=C(O)C2CC2)ccc1C#N [Example 6, 2-Cyano-N-(4-cyano-3-methyl-phenyl)-3-cyclopropyl-3-hydroxy-thioacrylamide]  5.10
4. N#CC(C(=S)Nc1ccc(C#N)cc1)=C(O)C1CC1 [Example 7, 2-Cyano-N-(4-cyano-phenyl)-3-cyclopropyl-3-hydroxy-thioacrylamide]  5.02
5. N#CC(C(=S)Nc1ccc([S+]([O-])C(F)(F)F)cc1)=C(O)C1CC1 (stereo not shown) [Example 8, 2-Cyano-3-cyclopropyl-3-hydroxy-N-(4-trifluoromethanesulfinyl-phenyl)-thioacrylamide]  4.99

Each compound was assayed against human GABAA α3β3γ2 (Homo sapiens (Human), UniProt P18507+P28472+P34903) (assay: Patch clamp electrophysiology, positive modulation, HEK293 cells expressing GABAA α3β3γ2). Details: 10 μM test compound; GABA EC20 current = 100%.
Assay type: cell-based
Text: (§1) Electrophysiological assays on different subunit combinations of the human GABAA receptor complex.
(§2) The functional positive modulation activity of the test compounds were investigated by using patch clamp techniques on HEK293 cells stably expressing different subunit combinations of the human GABAA receptor complex. In brief, the peak inward currents in response to the GABA (natural ligand of the GABAA receptors) additions in the presence of increasing concentrations of test compound were measured. To calculate the positive modulation activity the mean effect of GABA (EC20 concentration) was set to 100%.
(§3) A value of 100 percent equates to the compound having an effect equivalent to the addition of the EC20 concentration of GABA.

human GABAA α3β3γ2, sequence (P34903 29-492): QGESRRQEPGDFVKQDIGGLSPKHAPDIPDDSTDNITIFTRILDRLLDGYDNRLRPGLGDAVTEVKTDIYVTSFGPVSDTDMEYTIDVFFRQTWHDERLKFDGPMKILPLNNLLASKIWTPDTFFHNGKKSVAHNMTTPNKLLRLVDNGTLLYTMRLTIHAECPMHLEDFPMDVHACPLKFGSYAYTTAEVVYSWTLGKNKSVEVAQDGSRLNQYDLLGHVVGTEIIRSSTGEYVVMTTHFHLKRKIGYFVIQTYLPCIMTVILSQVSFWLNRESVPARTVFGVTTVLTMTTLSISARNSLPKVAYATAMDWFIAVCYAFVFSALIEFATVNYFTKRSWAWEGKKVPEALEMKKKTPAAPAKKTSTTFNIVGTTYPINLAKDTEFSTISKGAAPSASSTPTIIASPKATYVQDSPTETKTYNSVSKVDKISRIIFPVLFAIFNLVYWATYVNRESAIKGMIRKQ
human GABAA α3β3γ2, sequence (P28472 26-473): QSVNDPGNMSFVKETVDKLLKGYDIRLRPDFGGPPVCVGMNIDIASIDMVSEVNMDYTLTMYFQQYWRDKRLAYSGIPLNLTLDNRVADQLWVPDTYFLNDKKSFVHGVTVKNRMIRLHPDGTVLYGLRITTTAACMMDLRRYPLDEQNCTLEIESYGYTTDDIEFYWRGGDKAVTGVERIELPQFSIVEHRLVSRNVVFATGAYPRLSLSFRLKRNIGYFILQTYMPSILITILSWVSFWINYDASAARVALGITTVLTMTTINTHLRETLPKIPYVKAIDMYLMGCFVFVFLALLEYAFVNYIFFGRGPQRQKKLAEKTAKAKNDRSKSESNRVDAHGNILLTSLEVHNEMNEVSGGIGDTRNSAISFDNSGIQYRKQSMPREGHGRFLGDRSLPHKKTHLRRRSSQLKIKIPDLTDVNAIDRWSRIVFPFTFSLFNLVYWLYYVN
human GABAA α3β3γ2, sequence (P18507 40-475): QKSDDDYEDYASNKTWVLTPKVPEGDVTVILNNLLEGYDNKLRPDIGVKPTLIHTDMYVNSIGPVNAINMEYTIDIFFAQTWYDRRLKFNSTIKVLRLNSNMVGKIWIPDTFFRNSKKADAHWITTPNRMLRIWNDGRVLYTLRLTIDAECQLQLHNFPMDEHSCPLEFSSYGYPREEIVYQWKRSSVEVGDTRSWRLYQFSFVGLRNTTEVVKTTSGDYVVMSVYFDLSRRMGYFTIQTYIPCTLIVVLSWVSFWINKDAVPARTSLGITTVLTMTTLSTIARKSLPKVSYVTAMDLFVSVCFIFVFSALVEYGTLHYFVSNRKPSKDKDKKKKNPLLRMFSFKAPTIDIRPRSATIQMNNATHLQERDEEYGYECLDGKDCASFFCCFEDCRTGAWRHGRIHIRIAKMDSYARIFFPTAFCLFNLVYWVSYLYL

In order of rising “GABAA α3β3γ2 normalized percent current” value:
1. N#CC(C(=S)Nc1ccc(SC(F)(F)F)cc1)=C(O)C1CC1 [Example 5, 2-Cyano-3-cyclopropyl-3-hydroxy-N-(4-trifluoromethylsulfanyl-phenyl)-thioacrylamide]  315%
2. N#CC(C(=S)Nc1ccc(S(=O)(=O)C(F)(F)F)cc1)=C(O)C1CC1 [Example 9, 2-Cyano-3-cycopropyl-3-hydroxy-N-(4-trifluoromethanesulfonyl-phenyl)-thioacrylamide]  328%
3. Cc1cc(NC(=S)C(C#N)=C(O)C2CC2)ccc1C#N [Example 6, 2-Cyano-N-(4-cyano-3-methyl-phenyl)-3-cyclopropyl-3-hydroxy-thioacrylamide]  357%

The compounds below were run against human GABAA α2β3γ2 (Homo sapiens (Human), UniProt P18507+P28472+P47869) (assay: Patch clamp electrophysiology, positive modulation, HEK293 cells expressing GABAA α2β3γ2). Details: 10 μM test compound; GABA EC20 current = 100%.
Assay type: cell-based
Text: as §1, §2, §3

human GABAA α2β3γ2, sequence (P47869 29-451): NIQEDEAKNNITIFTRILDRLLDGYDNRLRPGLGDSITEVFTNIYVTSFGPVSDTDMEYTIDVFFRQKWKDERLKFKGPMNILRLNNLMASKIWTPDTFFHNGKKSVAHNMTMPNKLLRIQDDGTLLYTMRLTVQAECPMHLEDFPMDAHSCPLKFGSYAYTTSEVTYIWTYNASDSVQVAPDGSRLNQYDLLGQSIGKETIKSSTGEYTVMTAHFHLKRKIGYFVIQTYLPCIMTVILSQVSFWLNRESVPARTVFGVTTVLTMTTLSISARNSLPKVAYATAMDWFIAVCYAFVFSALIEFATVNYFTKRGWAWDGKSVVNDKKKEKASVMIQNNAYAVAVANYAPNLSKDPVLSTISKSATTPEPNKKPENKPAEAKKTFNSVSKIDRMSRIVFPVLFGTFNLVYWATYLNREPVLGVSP
human GABAA α2β3γ2, sequence (P28472 26-473): as the sequence (P28472 26-473) above
human GABAA α2β3γ2, sequence (P18507 40-475): as the sequence (P18507 40-475) above

In order of falling “GABAA α2β3γ2 normalized percent current” value:
1. N#CC(C(=S)Nc1ccc(SC(F)(F)F)cc1)=C(O)C1CC1 [Example 5, 2-Cyano-3-cyclopropyl-3-hydroxy-N-(4-trifluoromethylsulfanyl-phenyl)-thioacrylamide]  453%
2. Cc1cc(NC(=S)C(C#N)=C(O)C2CC2)ccc1C#N [Example 6, 2-Cyano-N-(4-cyano-3-methyl-phenyl)-3-cyclopropyl-3-hydroxy-thioacrylamide]  286%
3. N#CC(C(=S)Nc1ccc(S(=O)(=O)C(F)(F)F)cc1)=C(O)C1CC1 [Example 9, 2-Cyano-3-cycopropyl-3-hydroxy-N-(4-trifluoromethanesulfonyl-phenyl)-thioacrylamide]  259%

The compounds below were run against human GABAA α1β3γ2 (Homo sapiens (Human), UniProt P14867+P18507+P28472) (assay: Patch clamp electrophysiology, positive modulation, HEK293 cells expressing GABAA α1β3γ2). Details: 10 μM test compound; GABA EC20 current = 100%.
Assay type: cell-based
Text: as §1, §2, §3

human GABAA α1β3γ2, sequence (P14867 28-456): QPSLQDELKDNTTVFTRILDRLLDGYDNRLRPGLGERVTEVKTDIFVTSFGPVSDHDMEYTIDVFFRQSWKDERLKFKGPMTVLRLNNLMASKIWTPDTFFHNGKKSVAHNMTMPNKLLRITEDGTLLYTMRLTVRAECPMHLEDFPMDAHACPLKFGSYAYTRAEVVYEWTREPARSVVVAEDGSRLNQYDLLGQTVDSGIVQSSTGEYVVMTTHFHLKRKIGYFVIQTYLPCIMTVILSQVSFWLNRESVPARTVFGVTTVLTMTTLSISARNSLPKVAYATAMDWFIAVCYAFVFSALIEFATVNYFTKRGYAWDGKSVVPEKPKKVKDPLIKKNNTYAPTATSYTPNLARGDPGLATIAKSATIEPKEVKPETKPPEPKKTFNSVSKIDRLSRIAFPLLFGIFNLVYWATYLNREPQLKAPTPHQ
human GABAA α1β3γ2, sequence (P28472 26-473): as the sequence (P28472 26-473) above
human GABAA α1β3γ2, sequence (P18507 40-475): as the sequence (P18507 40-475) above

In order of falling “GABAA α1β3γ2 normalized percent current” value:
1. N#CC(C(=S)Nc1ccc(SC(F)(F)F)cc1)=C(O)C1CC1 [Example 5, 2-Cyano-3-cyclopropyl-3-hydroxy-N-(4-trifluoromethylsulfanyl-phenyl)-thioacrylamide]  707%
2. Cc1cc(NC(=S)C(C#N)=C(O)C2CC2)ccc1C#N [Example 6, 2-Cyano-N-(4-cyano-3-methyl-phenyl)-3-cyclopropyl-3-hydroxy-thioacrylamide]  338%
3. N#CC(C(=S)Nc1ccc(S(=O)(=O)C(F)(F)F)cc1)=C(O)C1CC1 [Example 9, 2-Cyano-3-cycopropyl-3-hydroxy-N-(4-trifluoromethanesulfonyl-phenyl)-thioacrylamide]  286%

The compounds below were run on neuropathic pain induced by spinal nerve ligation (SNL) injury (assay: SNL model or Chung model for peripheral neuropathic pain, mechanical allodynia (von Frey)). Details: 10 mg/kg oral gavage for 5 days, rat.
Assay type: in vivo, rat
Method: SNL model or Chung model as in vivo model for peripheral neuropathic pain
Surgery was performed according to the method of Chung et al., 2004 (see List of References). In brief, animals are anesthetized and the hair on their backs is trimmed. Under sterile conditions, a longitudinal incision is made at the lower lumbar and sacral levels, exposing the paraspinal muscles on the left. Connective tissues and muscles are removed by a small scraper, after which bony structures become visible. The L6 vertebra left transverse process of animal was first removed to expose the L4 and L5 spinal nerves. The L5 spinal nerve was then carefully isolated and tightly ligated with 6-0 silk thread. Surgery was always performed on the left leg (Ipsilateral paw), the right leg (contralateral paw) remained intact and served as a control. On completion of the operation, hemostasis is confirmed and the muscles are sutured in layers using silk thread and the skin is closed with metal clips, anesthesia is then discontinued. Axonal degeneration occurs, with all types of axons being approximately equally affected. Pronounced mechanical allodynia follows, accompanied by spontaneous pain behaviors, which lasts for several weeks without recovery. Mechanical allodynia is typically assessed beginning 1-2 weeks post-surgery.
(§4) Mechanical allodynia thresholds were determined according to the methods described by Chaplan and colleagues (Chaplan et al., 1994). At the designated post-operative time points the injured rats were placed in an elevated clear-plastic, wire mesh-bottomed cage. After a 10- to 15-min acclimation period, eight von Frey filaments (Stoelting, Wood Dale, Ill.) with bending forces ranging from 2 to 60 g were used to determine the 50% mechanical threshold for paw withdrawal using the up-and-down method.
After spinal nerve ligation (SNL) injury, individual rats were randomly assigned into a treatment group. The following groups were used:
Group 2: SNL+ Example 1 (10 mg/kg) in vehicle by oral gavage for 5 days from DPO7 (pre-treat) till DPO12.
Group 3: SNL+ Example 2 (10 mg/kg) in vehicle by oral gavage for 5 days from DPO7 (pre-treat) till DPO12.
Group 2: SNL+ Example 3 (10 mg/kg) in vehicle by oral gavage for 5 days from DPO14 till DPO19.
Group 3: SNL+ Example 4 (10 mg/kg) in vehicle by oral gavage for 5 days from DPO14 till DPO19.
Group 4: SNL+ Example 6 (10 mg/kg) in vehicle by oral gavage for 5 days from DPO14 till DPO19.

With `Cc1cc(NC(=S)C(C#N)=C(O)C2CC2)ccc1C#N` [Example 6, 2-Cyano-N-(4-cyano-3-methyl-phenyl)-3-cyclopropyl-3-hydroxy-thioacrylamide] the “reversal of neuropathic pain induced by spinal nerve ligation” value was “can reverse neuropathic pain”.

Same assay, conditions: Experiment 2, 10 mg/kg oral gavage 5 days DPO14-DPO19; at DPO21; cut-off 60 g

`Cc1cc(NC(=S)C(C#N)=C(O)C2CC2)ccc1C#N` [Example 6, 2-Cyano-N-(4-cyano-3-methyl-phenyl)-3-cyclopropyl-3-hydroxy-thioacrylamide] was tested, and the “50% paw withdrawal threshold” value was ~40 g.

These compounds were tested on acute pain induced by capsaicin injection in the hindpaw (assay: Capsaicin induced pain model for acute pain, mechanical allodynia (von Frey)). Details: 1 or 10 mg/kg oral gavage, rat hindpaw.
Assay type: in vivo, rat
Method: as §4
Capsaicin induced pain as in vivo model for acute pain
Rats were gently restrained and capsaicin (10 μg in 10 μI of 10% Tween80) in saline was injected into the plantar surface of the hindpaw using a 0.3 ml insulin syringe with a 29-gauge needle (Terumo Europe, Belgium).
After injection of Capsaicin, individual rats were randomly assigned into a treatment group. The following groups were used:
Group 2: Capsaicin injection+ Example 1 (1 mg/kg) in vehicle by oral gavage about 40 minutes after injection.
Group 3: Capsaicin injection+ Example 3 (1 mg/kg) in vehicle by oral gavage about 40 minutes after injection.
Group 2: Capsaicin injection+ Example 2 (10 mg/kg) in vehicle by oral gavage about 40 minutes after injection.
Group 3: Capsaicin injection+ Example 6 (10 mg/kg) in vehicle by oral gavage about 40 minutes after injection.

In the case of `Cc1cc(NC(=S)C(C#N)=C(O)C2CC2)ccc1C#N` [Example 6, 2-Cyano-N-(4-cyano-3-methyl-phenyl)-3-cyclopropyl-3-hydroxy-thioacrylamide], the “reversal of acute pain induced by capsaicin injection” value was “can reverse acute pain”.

Same assay, conditions: Experiment 2, 10 mg/kg oral gavage about 40 minutes after capsaicin; 150 minutes after capsaicin injection

For `Cc1cc(NC(=S)C(C#N)=C(O)C2CC2)ccc1C#N` [Example 6, 2-Cyano-N-(4-cyano-3-methyl-phenyl)-3-cyclopropyl-3-hydroxy-thioacrylamide], the “50% paw withdrawal threshold” value was 35 g.

Same assay, conditions: Experiment 2, 10 mg/kg oral gavage about 40 minutes after capsaicin; 210 minutes after capsaicin injection

`Cc1cc(NC(=S)C(C#N)=C(O)C2CC2)ccc1C#N` [Example 6, 2-Cyano-N-(4-cyano-3-methyl-phenyl)-3-cyclopropyl-3-hydroxy-thioacrylamide] was tested, and the “50% paw withdrawal threshold” value was 25 g.
